Assay results taken from patent publication US12491199B2, “Polycannabinoids, compounds, compositions and methods of use” (priority 2020, dated 2025).
“Also recorded” adds a separate entry of the source. Where two headings read alike, the source gives them in different places.

How the values were obtained:
Type in all cases: physicochemical
[1] = Non-isothermal thermogravimetric analysis (TGA), onset of thermal degradation
Protocol: (§1) Materials and Methods: Cannabidiol (CBD) was purchased from EcoGen BioSciences and used as received. Cannabigerol (CBG) was purchased from Mile High Labs, Inc and used as received. All other chemicals were purchased from Sigma Aldrich and used without further purification unless otherwise noted. Unless otherwise indicated, ^1H NMR was collected using a Bruker AVANCE 500 MHz instrument. Thermo Gravimetric Analysis was conducted using a TA Instruments TGA Q-500 and DSC was collected using a TA Instruments DSC Q-20. GPC was taken using a WATERS GPC equipped with a 1515 HPLC Pump and Waters 717Plus Autoinjector. Ultra Performance Liquid Chromatograph tandem Mass Spectrometry (UPLC/MS/MS) was conducted using a Waters Acquity UPLC-TQD equipped with a PDA detector.
Thermogravimetric Analysis (TGA): Non-Isothermal degradation: Samples were heated in pre-tared platinum pans under nitrogen atmosphere to 700° C. at a heating rate of 10° C./minute.

[2] = Isothermal degradation by TGA in the presence of oxygen; conditions: 60 minutes
Protocol: as §1
Isothermal degradation: Samples were heated in pre-tared pans while in the presence of oxygen to either 150, 160, 180 or 220° C. at a heating rate of 10° C./minute. They were left at the high temperature for 60 minutes. The degradation rate was determined from the slope of the weight % vs Time plots.

[3] = Heat induced by-product analysis (open vials, 175° C., 30 minutes, convection oven; NMR, UPLC/MS/MS); conditions: for remaining residue after heating: 100 mg sample, open vial, convection oven; for remaining residue after heating / NMR analysis of the sample residues after heating / amount of by-product formation (LC/MS): 175° C., 30 minutes
Protocol: Heat induced by-product analysis experiment: Open vials containing 100 mg of CBD, CBD-Diacetate, and Poly(CBD) were heated at 175° C. for 30 minutes in a laboratory convection oven. After heating, the remaining residue was weighed at 89.64 mg, 91.35 mg, and 99.86 mg for each compound, respectively. Samples were then analyzed using ^1H NMR. […] Ultra performance liquid chromatograph tandem mass spectrometry (UPLC/MS/MS) was conducted to compare formed by-products against nine known cannabinoid standards.
Popular types of consumer cannabis products include tinctures, vaporizer liquids, and baked foods, while potential pharmaceutical products include oil extracts, solutions, and tablet. In each case, cannabinoids within the products are subjected to elevated temperatures for short periods of time during manufacturing or, in the case of vaporizer liquids, when being consumed. FIGS. 5-6 show the rates of degradation after short-term exposure to temperatures from 150-220° C. Table 1 includes the values of onset temperatures for thermal degradation and degradation rates for each compound. The phytocannabinoids degraded at rates from 0.2 wt % per minute to ˜10 wt % per minute at 150° C. and 220° C., respectively. Thermal degradation of both poly(cannabinoid)s remained less than 0.1 wt % over the same range, stabilizing the phytocannabinoid. Open vials containing 100 mg samples of CBD, CBD-diacetate, and poly(CBD-adipate) were heated at 175° C. in a laboratory convection oven for 30 minutes, after which 89.64 mg, 91.35, and 99.86 mg remained of each sample, respectfully. […]. Conversion of phytocannabinoids to poly(cannabinoid)s offers a preservative effect, eliminating the production of additional cannabinoids.

[4] = nitrogen atmosphere, heated to 700° C. at 10° C./minute
[5] = heated under the same conditions after purging thoroughly with argon

Structure (SMILES): CCCCCc1cc(O)c(C/C=C(\C)CCC=C(C)C)c(O)c1 [CBG, cannabigerol]
- Td, onset for thermal degradation according to non-isothermal TGA [1]: 191 °C
- extrapolated onset degradation temperature (TGA) [1]: 191 °C

Structure (SMILES): CCCCCc1cc(OC(C)=O)c(C/C=C(\C)CCC=C(C)C)c(OC(C)=O)c1 [CBG-Diacetate, Cannabigerol-Diacetate]
- Degradation rate from isothermal TGA ([2]; 150° C.): 0.08 weight % loss per minute
- Degradation rate from isothermal TGA ([2]; 160° C.): 0.11 weight % loss per minute
- Degradation rate from isothermal TGA ([2]; 180° C.): 0.49 weight % loss per minute
- Degradation rate from isothermal TGA ([2]; 220° C.): 1.92 weight % loss per minute
- Td, onset for thermal degradation according to non-isothermal TGA [1, 4]: 223 °C

Structure (SMILES): C=C(C)[C@@H]1CCC(C)=C[C@H]1c1c(OC(C)=O)cc(CCCCC)cc1OC(C)=O [CBD-Diacetate, Cannabidiol-Diacetate]
- remaining residue after heating [3]: 91.35 mg
- NMR analysis of the sample residues after heating [3]: New peaks formed
- amount of by-product formation (LC/MS) [3]: 25.32%
- NMR analysis of the sample residues after heating ([3]; listed as CBD-diacetate): formation of additional compounds
- Degradation rate from isothermal TGA ([2]; 150° C.): 0.54 weight % loss per minute
- Degradation rate from isothermal TGA ([2]; 160° C.): 0.54 weight % loss per minute
- Degradation rate from isothermal TGA ([2]; 180° C.): 0.84 weight % loss per minute
- Degradation rate from isothermal TGA ([2]; 220° C.): 5.65 weight % loss per minute
- Td, onset for thermal degradation according to non-isothermal TGA [1, 4]: 185 °C
- extrapolated onset degradation temperature (TGA) ([1]; non-isothermal TGA, FIGS. 3-4): 185 °C

Structure (SMILES): C=C(C)[C@@H]1CCC(C)=C[C@H]1c1c(O)cc(CCCCC)cc1O [CBD, cannabidiol]
- remaining residue after heating [3]: 89.64 mg
- NMR analysis of the sample residues after heating [3]: New peaks formed; also recorded: formation of additional compounds
- amount of by-product formation (LC/MS) [3]: 10.68%
- Δ8-THC detected using 1H NMR [3, 5]: 0.21%
- Δ9-THC detected using 1H NMR [3, 5]: 0.16%
- Degradation rate from isothermal TGA ([2]; 150° C.): 0.18 weight % loss per minute
- Degradation rate from isothermal TGA ([2]; 160° C.): 0.43 weight % loss per minute
- Degradation rate from isothermal TGA ([2]; 180° C.): 0.94 weight % loss per minute
- Degradation rate from isothermal TGA ([2]; 220° C.): 9.09 weight % loss per minute
- Td, onset for thermal degradation according to non-isothermal TGA [1, 4]: 184 °C
- extrapolated onset degradation temperature (TGA) ([1]; non-isothermal TGA, FIGS. 3-4): 184 °C
